From patent publication US7655392B2, “Quenching methods for red blood cell inactivation process” (priority 2004, dated 2010)
Where two headings read alike, the source gives them in different places.

Key:
[1] = test system: Vesicular Stomatitis Virus (VSV); assay type: cell-based
red blood cells = test system: red blood cells
Description: Methods for determining ATP, 2,3-DPG, glucose, hemoglobin, hemolysis, and potassium are available in the art. See for example, Davey et al., Transfusion, 32:525-528 (1992), the disclosure of which is incorporated herein. Methods for determining red blood cell function are also described in Greenwalt et al., Vox Sang, 58:94-99 (1990); Hogman et al., Vox Sang, 65:271-278 (1993); and Beutler et al., Blood, Vol. 59 (1982) the disclosures of which are incorporated herein by reference. For example, intracellular ATP and intracellular 2,3-DPG are measured using a Sigma ATP kit or 2,3-DPG kit (Sigma, St. Louis, Mo.). The ATP kit is used following Sigma procedure No. 366-UV, the disclosure of which is hereby incorporated by reference. […] The extracellular pH is measured by centrifuging the cells at 4° C. for 15 minutes at 12,000×g and removing the supernatant, for which the pH is measured using a standard pH meter at room temperature (e.g. Beckman, Epoxy Calomel electrode). For the intracellular pH, the remaining pellet is capped in the centrifuge tube and stored at about −80° C. for at least 2 hours. This is then lysed by the addition of deionized water. […] Measurements can be made shortly after treatment and as a function of post treatment storage, for example storage for up to 42 days.
Full units of red cell concentrates (Interstate Blood Bank, Inc., Memphis, Tenn.) were leukoreduced. A volume of 200 mL of this RCC (80% hematocrit) was mixed with 94 mL of Erythrosol or 100 mL of Adsol (Baxter Healthcare Corp., Deerfield, Ill.) as control (unit 1). A volume of 20 mL 8% dextrose was used to dissolve PIC-1 (mg) and acid glutathione (mg) and added to one unit to provide 0.2 mM PIC-1 and 2 mM glutathione (unit 2). […] For the glutathione, 1.2 mL of 10 N NaOH was added (2 equivalents). The PIC-1 was mixed with the unit, followed 1 minute later (unit 3) or 5 minutes later (unit 4) by glutathione. For unit 5, neutralized glutathione was mixed first, followed 10 minutes later by the PIC-1. […] All units were mixed by grasping the ends of the blood bag and mixing in a FIG. 8 motion 30 times. These were then incubated at room temperature for 20 hours total. A compound adsorption device (CAD), comprising a polymeric resin contained within a mesh pouch, was used for all but the control sample. This device is intended to remove residual PIC-1, PIC-1 breakdown products, and glutathione from the samples. Samples were incubated for 8 hours, then transferred to a second blood bag containing the CAD and incubated for an additional 12 hours. Following the room temperature incubation, samples were transferred to a refrigerator (4° C.) and stored up to 43 days. Aliquots were removed from each unit 12 hours and 20 hours post mixing, and every week thereafter. Aliquots were analyzed for total hemoglobin, pH, intracellular ATP, plasma hemoglobin, potassium, extracellular glucose and extracellular lactate.

[2] = Table 6A: 20 mM glutathione+2 eq base only, no PIC-1

With `O=C(CCNc1c2ccccc2nc2ccccc12)OCCN(CCCl)CCCl` [PIC-1] the “inactivation of a high titer of VSV” value [1] was “essentially complete inactivation”, the “Percent Hemolysis” value (red blood cells; 16B day 0, sample 2: standard 0.2 mM PIC-1+2 mM GSH) was 0.22% and the “Percent Hemolysis” value (red blood cells; 16B day 0, sample 3: 0.2 mM PIC-1, 1' delay, 20 mM GSH+2 eq base) was 0.19%. For the same molecule, the “Percent Hemolysis” value (red blood cells; 16B day 0, sample 4: 0.2 mM PIC-1, 5' delay, 20 mM GSH+2 eq base) was 0.19%, the “Percent Hemolysis” value (red blood cells; 16B day 0, sample 5: 20 mM GSH+2 eq base, 10' delay, 0.2 mM PIC-1) was 0.19% and the “Percent Hemolysis” value (red blood cells; 16B day 0.5, sample 2: standard 0.2 mM PIC-1+2 mM GSH) was 0.24%. The “Percent Hemolysis” value (red blood cells; 16B day 0.5, sample 3: 0.2 mM PIC-1, 1' delay, 20 mM GSH+2 eq base) was 0.16%, the “Percent Hemolysis” value (red blood cells; 16B day 0.5, sample 4: 0.2 mM PIC-1, 5' delay, 20 mM GSH+2 eq base) was 0.25% and the “Percent Hemolysis” value (red blood cells; 16B day 0.5, sample 5: 20 mM GSH+2 eq base, 10' delay, 0.2 mM PIC-1) was 0.24%. The “Percent Hemolysis” value (red blood cells; 16B day 0.8, sample 2: standard 0.2 mM PIC-1+2 mM GSH) was 0.46%, the “Percent Hemolysis” value (red blood cells; 16B day 0.8, sample 3: 0.2 mM PIC-1, 1' delay, 20 mM GSH+2 eq base) was 0.40% and the “Percent Hemolysis” value (red blood cells; 16B day 0.8, sample 4: 0.2 mM PIC-1, 5' delay, 20 mM GSH+2 eq base) was 0.48%. The “Percent Hemolysis” value (red blood cells; 16B day 0.8, sample 5: 20 mM GSH+2 eq base, 10' delay, 0.2 mM PIC-1) was 0.47%, the “Percent Hemolysis” value (red blood cells; 16B day 7, sample 2: standard 0.2 mM PIC-1+2 mM GSH) was 0.62% and the “Percent Hemolysis” value (red blood cells; 16B day 7, sample 3: 0.2 mM PIC-1, 1' delay, 20 mM GSH+2 eq base) was 0.35%. For the same molecule, the “Percent Hemolysis” value (red blood cells; 16B day 7, sample 4: 0.2 mM PIC-1, 5' delay, 20 mM GSH+2 eq base) was 0.52%, the “Percent Hemolysis” value (red blood cells; 16B day 7, sample 5: 20 mM GSH+2 eq base, 10' delay, 0.2 mM PIC-1) was 0.57% and the “Percent Hemolysis” value (red blood cells; 16B day 14, sample 2: standard 0.2 mM PIC-1+2 mM GSH) was 0.69%. The “Percent Hemolysis” value (red blood cells; 16B day 14, sample 3: 0.2 mM PIC-1, 1' delay, 20 mM GSH+2 eq base) was 0.50%, the “Percent Hemolysis” value (red blood cells; 16B day 14, sample 4: 0.2 mM PIC-1, 5' delay, 20 mM GSH+2 eq base) was 0.52% and the “Percent Hemolysis” value (red blood cells; 16B day 14, sample 5: 20 mM GSH+2 eq base, 10' delay, 0.2 mM PIC-1) was 0.55%. For the same molecule, the “Percent Hemolysis” value (red blood cells; 16B day 22, sample 2: standard 0.2 mM PIC-1+2 mM GSH) was 0.87%, the “Percent Hemolysis” value (red blood cells; 16B day 22, sample 3: 0.2 mM PIC-1, 1' delay, 20 mM GSH+2 eq base) was 0.59% and the “Percent Hemolysis” value (red blood cells; 16B day 22, sample 4: 0.2 mM PIC-1, 5' delay, 20 mM GSH+2 eq base) was 0.62%. For the same molecule, the “Percent Hemolysis” value (red blood cells; 16B day 22, sample 5: 20 mM GSH+2 eq base, 10' delay, 0.2 mM PIC-1) was 0.63%, the “Percent Hemolysis” value (red blood cells; 16B day 28, sample 2: standard 0.2 mM PIC-1+2 mM GSH) was 0.86% and the “Percent Hemolysis” value (red blood cells; 16B day 28, sample 3: 0.2 mM PIC-1, 1' delay, 20 mM GSH+2 eq base) was 0.63%. For the same molecule, the “Percent Hemolysis” value (red blood cells; 16B day 28, sample 4: 0.2 mM PIC-1, 5' delay, 20 mM GSH+2 eq base) was 0.64%, the “Percent Hemolysis” value (red blood cells; 16B day 28, sample 5: 20 mM GSH+2 eq base, 10' delay, 0.2 mM PIC-1) was 0.65% and the “Percent Hemolysis” value (red blood cells; 16B day 35, sample 2: standard 0.2 mM PIC-1+2 mM GSH) was 0.99%. For the same molecule, the “Percent Hemolysis” value (red blood cells; 16B day 35, sample 3: 0.2 mM PIC-1, 1' delay, 20 mM GSH+2 eq base) was 0.74%, the “Percent Hemolysis” value (red blood cells; 16B day 35, sample 4: 0.2 mM PIC-1, 5' delay, 20 mM GSH+2 eq base) was 0.76% and the “Percent Hemolysis” value (red blood cells; 16B day 35, sample 5: 20 mM GSH+2 eq base, 10' delay, 0.2 mM PIC-1) was 0.71%. The “Percent Hemolysis” value (red blood cells; 16B day 43, sample 2: standard 0.2 mM PIC-1+2 mM GSH) was 1.17%, the “Percent Hemolysis” value (red blood cells; 16B day 43, sample 3: 0.2 mM PIC-1, 1' delay, 20 mM GSH+2 eq base) was 0.82% and the “Percent Hemolysis” value (red blood cells; 16B day 43, sample 4: 0.2 mM PIC-1, 5' delay, 20 mM GSH+2 eq base) was 0.90%. For the same molecule, the “Percent Hemolysis” value (red blood cells; 16B day 43, sample 5: 20 mM GSH+2 eq base, 10' delay, 0.2 mM PIC-1) was 0.83%.
For `N[C@@H](CCC(=O)N[C@@H](CS)C(=O)NCC(=O)O)C(=O)O` [glutathione, γ-L-glutamyl-L-cysteinyl-glycine], the “Log VSV reduction” value [1, 2] was −0.04 Log, the “Log VSV titer” value [1, 2] was 6.25 Log and the “Percent Hemolysis” value (red blood cells; 16B day 0, sample 6: 0.2 mM GSH+2 eq base, no PIC-1) was 0.15%. The “Percent Hemolysis” value (red blood cells; 16B day 0.5, sample 6: 0.2 mM GSH+2 eq base, no PIC-1) was 0.19%, the “Percent Hemolysis” value (red blood cells; 16B day 0.8, sample 6: 0.2 mM GSH+2 eq base, no PIC-1) was 0.51% and the “Percent Hemolysis” value (red blood cells; 16B day 7, sample 6: 0.2 mM GSH+2 eq base, no PIC-1) was 0.58%. The “Percent Hemolysis” value (red blood cells; 16B day 14, sample 6: 0.2 mM GSH+2 eq base, no PIC-1) was 0.61%, the “Percent Hemolysis” value (red blood cells; 16B day 22, sample 6: 0.2 mM GSH+2 eq base, no PIC-1) was 0.60% and the “Percent Hemolysis” value (red blood cells; 16B day 28, sample 6: 0.2 mM GSH+2 eq base, no PIC-1) was 0.71%. The “Percent Hemolysis” value (red blood cells; 16B day 35, sample 6: 0.2 mM GSH+2 eq base, no PIC-1) was 0.70% and the “Percent Hemolysis” value (red blood cells; 16B day 43, sample 6: 0.2 mM GSH+2 eq base, no PIC-1) was 0.75%.
